From patent EP0361348A1, “Non-steroidal pharmaceutical composition and process for producing the same” (NIPPON HYPOX LABORATORIES INCORPORATED, priority 1988, dated 1990) come the findings set out here.

For the assay, the system named is male SD rats. The assay can be described thus: Anti-inflammatory action: carrageenin-induced sole swelling (plethysmometer). It counts as in vivo. To be noted: 1 mg/kg in terms of Piroxicam, oral; for Swelling percent: 1 hour before carrageenin, mean, n=5. The protocol:
As test animals, there were used male SD rats each weighing about 200 g. As a test sample, there was used a suspension of each of the anti-inflammatory agent compositions No. 1-4 obtained in Examples 1-4 above, in a gum arabic solution (the concentration of Piroxicam in the suspension was 1%). This test sample was orally administered to each rat in an amount of 1 mg/kg in terms of Piroxicam. One hour after the administration of the test sample, an inflammatory agent (0.1 ml of a physiological saline solution containing 1% of carrageenin) was subcutaneously injected to each rat at the sole. Then, the sole volume was measured with the lapse of time using a plethysmometer, and swelling percent was calculated from the following formula. Swelling percent (%) = [(Ps - Po)/Po] x 100 where Po = sole volume before injection of carrageenin Ps = sole volume at a certain time after the injection of carrageenin For comparison, Piroxicam alone was orally administered in an amount of 1 mg/kg, in the same manner as above, and the change of swelling percent with time was examined.

With `CN1C(C(=O)Nc2ccccn2)=C(O)c2ccccc2S1(=O)=O` [Piroxicam alone, Piroxicam], the Swelling percent is recorded as 26.79% (0.5 hour after carrageenin injection); 39.51% (1 hour after carrageenin injection); 46.71% (1.5 hours after carrageenin injection); 45.72% (2 hours after carrageenin injection); 43.77% (3 hours after carrageenin injection); 44.33% (4 hours after carrageenin injection). In addition, for the setting “result in words, from Table 1”, the anti-inflammatory action result was “significant anti-inflammatory action”.
